Tests used:
[1] = Sink Conditions dissolution testing of Formulation C5-12; type: physicochemical; settings: N = 6
Procedure: The release profiles of Formulation C5-12 of Example 1 were evaluated in a Sink Conditions dissolution study. The study was conducted in 900 mL of dissolution medium using a standard USP dissolution Apparatus 2 (paddle) operating at 100 RPM at 37±0.5° C. The dissolution medium was a 0.05 M sodium phosphate buffer pH 6.8 with 15 mM cTAB as a surfactant.

[2] = Human pharmacokinetic study, Example 4 Arm II (single dose, crossover); type: in vivo; settings: both sexes, human, oral, Example 4 Arm II, single dose, non-fasting, N = 13; for half-life / AUC(0-t) / AUC(0-inf) / Tmax: blood; for AUC(0-t): read-out: AUCt, geometric mean; for AUC(0-inf): read-out: AUC∞, geometric mean; for Tmax: read-out: Tmax; for concentration at 24 h / Cmax: in vivo; for concentration at 24 h: read-out: C24, geometric mean; for Cmax: read-out: Cmax, geometric mean
In short: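 Healthy adult men and women (N=30 across Arms I and II) randomised to crossover regimen sequences; single oral dose with ~240 mL water ~30 min after a standardised breakfast; one regimen given an evening dose after a snack.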

[3] = Human pharmacokinetic study, Example 4 Arm III (14-day multiple dose, steady state); type: in vivo
[4] = Human pharmacokinetic study, Example 5 Arm I (single dose, replicated crossover); type: in vivo; settings: both sexes, human, oral, single dose, non-fasting; for half-life / AUC(0-t) / AUC(0-inf) / Tmax: blood; for Cmax: in vivo
In short: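 Single-dose, randomized, four-period, two-sequence replicated crossover in 88 healthy adults, periods separated by at least 10 days. Oral dosing in the morning with about 240 mL water, about 30 min after starting a standardized breakfast. Serial blood samples collected over 72 h after each dose.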

[5] = Human pharmacokinetic study, Example 5 Arm II (multiple dose, crossover); type: in vivo; settings: Example 5 Arm II; for β, geometric mean / half-life / AUC / concentration at 24 h / Cmax / Tmax: multiple dose 14 days, non-fasting, N = 63; for half-life / AUC / concentration at 24 h / Cmax / Tmax: both sexes, human, blood, oral; for AUC: read-out: AUC24, geometric mean; for concentration at 24 h: read-out: C24, geometric mean; for Cmax: read-out: Cmax, geometric mean; for Tmax: read-out: Tmax, first value (geometric mean)
In short: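 Multiple-dose two-period randomized crossover in 66 healthy adults: oral dosing for 14 days per period, ≥10-day separation, taken with ~240 mL water about 30 min after a standardized breakfast. Serial blood samples for pharmacokinetics were collected 72 hours after dosing in each period.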

[6] = Solubility (general statement); type: physicochemical
[7] = Permeability (general statement); type: in vitro ADME; settings: free acid of Compound 4; gastrointestinal tract
[8] = 4 hours, pH 6.8 buffer, 15 mM cTAB
[9] = 6 hours, pH 6.8 buffer, 15 mM cTAB
[10] = 8 hours, pH 6.8 buffer, 15 mM cTAB
[11] = 12 hours, pH 6.8 buffer, 15 mM cTAB
[12] = 16 hours, pH 6.8 buffer, 15 mM cTAB
[13] = 24 hours, pH 6.8 buffer, 15 mM cTAB
[14] = 30 hours, pH 6.8 buffer, 15 mM cTAB
[15] = 3 Formulation C5-12 tablets, Regimen E (C5-12): three Formulation C5-12 tablets in the morning
[16] = Regimen A (reference regimen): two Triple Tablets + one Single Tablet morning, one Single Tablet evening
[17] = Formulation C5-12, Day 14 versus Day 1
[18] = human, in vivo, oral, 3 Formulation C5-12 tablets daily, three Formulation C5-12 tablets daily for 14 days, non-fasting, Day 14, N = 14
[19] = three Formulation C5-12 tablets daily for 14 days, non-fasting, Day 14, N = 14
[20] = Regimen B (reference regimen): two Triple Tablets + one Single Tablet morning, one Single Tablet evening
[21] = 3 film-coated Formulation C5-12 tablets daily, Regimen A (C5-12): three film-coated Formulation C5-12 tablets daily

% Released ([1]; 1 hour, 900 mL 0.05 M sodium phosphate buffer pH 6.8, 15 mM cTAB, USP Apparatus 2, 100 RPM, 37 °C): 1%
mg Released ([1]; 1 hour, pH 6.8 buffer, 15 mM cTAB): 2.3 mg
% Released [1, 8]: 11%
mg Released [1, 8]: 25.7 mg
% Released [1, 9]: 18%
mg Released [1, 9]: 42.0 mg
% Released [1, 10]: 25%
mg Released [1, 10]: 58.3 mg
% Released [1, 11]: 39%
mg Released [1, 11]: 91.0 mg
% Released [1, 12]: 51%
mg Released [1, 12]: 119.0 mg
% Released [1, 13]: 70%
mg Released [1, 13]: 163.3 mg
% Released [1, 14]: 81%
mg Released [1, 14]: 189.0 mg
half-life [2, 15]: 6.4 h
AUC(0-t) [2, 15]: 18400 ng·h/mL
AUC(0-inf) [2, 15]: 18600 ng·h/mL
Tmax [2, 15]: 9.7 h
half-life [2, 16]: 5.5 h
AUC(0-t) [2, 16]: 18200 ng·h/mL
AUC(0-inf) [2, 16]: 18400 ng·h/mL
Tmax [2, 16]: 3.1 h
concentration at 24 h [2, 15]: 290 ng/mL
Cmax [2, 15]: 1350 ng/mL
concentration at 24 h [2, 16]: 361 ng/mL
Cmax [2, 16]: 1240 ng/mL
AUC24, RATIO [3, 17]: 0.88
C24, RATIO [3, 17]: 0.63
Cmax, RATIO [3, 17]: 0.95
Tmax ([3]; human, in vivo, oral, 3 Formulation C5-12 tablets daily, three Formulation C5-12 tablets daily for 14 days, non-fasting, Day 1, N = 14): 9 h
AUC ([3]; human, in vivo, oral, 3 Formulation C5-12 tablets daily, three Formulation C5-12 tablets daily for 14 days, non-fasting, Day 1, N = 14, read-out: AUC24, geometric mean): 13600 ng·h/mL
concentration at 24 h ([3]; human, in vivo, oral, 3 Formulation C5-12 tablets daily, three Formulation C5-12 tablets daily for 14 days, non-fasting, Day 1, N = 14, read-out: C24, geometric mean): 272 ng/mL
Cmax ([3]; human, in vivo, oral, 3 Formulation C5-12 tablets daily, three Formulation C5-12 tablets daily for 14 days, non-fasting, Day 1, N = 14, read-out: Cmax, geometric mean): 1320 ng/mL
Tmax [3, 18]: 9.4 h
half-life [3, 18]: 5.9 h
AUC ([3]; human, in vivo, oral, 3 Formulation C5-12 tablets daily, three Formulation C5-12 tablets daily for 14 days, non-fasting, Day 14, N = 14, read-out: AUC24, geometric mean): 12000 ng·h/mL
concentration at 24 h ([3]; human, in vivo, oral, 3 Formulation C5-12 tablets daily, three Formulation C5-12 tablets daily for 14 days, non-fasting, Day 14, N = 14, read-out: C24, geometric mean): 172 ng/mL
Cmax ([3]; human, in vivo, oral, 3 Formulation C5-12 tablets daily, three Formulation C5-12 tablets daily for 14 days, non-fasting, Day 14, N = 14, read-out: Cmax, geometric mean): 1250 ng/mL
C24, arithmetic mean, % CV [3, 19]: (210,61) ng/mL
β [3, 19]: 0.117 h⁻¹
half-life ([4]; 3 film-coated Formulation C5-12 tablets, Regimen A (C5-12): three film-coated Formulation C5-12 tablets, N = 172): 6.91 h
AUC(0-t) ([4]; 3 film-coated Formulation C5-12 tablets, Regimen A (C5-12): three film-coated Formulation C5-12 tablets, N = 172, read-out: AUCt, geometric mean): 12700 ng·h/mL
AUC(0-inf) ([4]; 3 film-coated Formulation C5-12 tablets, Regimen A (C5-12): three film-coated Formulation C5-12 tablets, N = 172, read-out: AUC∞, geometric mean): 12900 ng·h/mL
Tmax ([4]; 3 film-coated Formulation C5-12 tablets, Regimen A (C5-12): three film-coated Formulation C5-12 tablets, N = 172, read-out: Tmax, first value (geometric mean)): 8 h
half-life ([4]; Regimen B (reference regimen): two Triple Tablets + one Single Tablet morning, one Single Tablet evening, N = 171): 5.8 h
AUC(0-t) ([4]; Regimen B (reference regimen): two Triple Tablets + one Single Tablet morning, one Single Tablet evening, N = 171, read-out: AUCt, geometric mean): 14800 ng·h/mL
AUC(0-inf) ([4]; Regimen B (reference regimen): two Triple Tablets + one Single Tablet morning, one Single Tablet evening, N = 171, read-out: AUC∞, geometric mean): 14900 ng·h/mL
Tmax ([4]; Regimen B (reference regimen): two Triple Tablets + one Single Tablet morning, one Single Tablet evening, N = 171, read-out: Tmax, first value (geometric mean)): 4 h
Cmax ([4]; 3 film-coated Formulation C5-12 tablets, Regimen A (C5-12): three film-coated Formulation C5-12 tablets, N = 172, read-out: Cmax, geometric mean): 1060 ng/mL
Cmax ([4]; Regimen B (reference regimen): two Triple Tablets + one Single Tablet morning, one Single Tablet evening, N = 171, read-out: Cmax, geometric mean): 1030 ng/mL
β, geometric mean ([5]; Regimen A (C5-12): three film-coated Formulation C5-12 tablets daily): 0.104 h⁻¹
β, geometric mean [5, 20]: 0.122 h⁻¹
Exposures (Cmax,ss and AUC24,ss) versus the reference regimen ([5]; Formulation C5-12, point estimate and 90% confidence interval for the GMR within 0.80-1.25): bioequivalent
C24,ss lower than C24,ss (Ctrough) for the reference regimen ([5]; Formulation C5-12 relative to the reference regimen): 29%
half-life [5, 21]: 6.2 h
AUC [5, 21]: 8810 ng·h/mL
concentration at 24 h [5, 21]: 116 ng/mL
Cmax [5, 21]: 799 ng/mL
Tmax [5, 21]: 8 h
half-life [5, 20]: 5.5 h
AUC [5, 20]: 9770 ng·h/mL
concentration at 24 h [5, 20]: 162 ng/mL
Cmax [5, 20]: 879 ng/mL
Tmax [5, 20]: 4 h
Solubility ([6]; aqueous): low solubility
Solubility in the gastrointestinal tract ([6]; free acid of Compound 4): poor solubility
Permeability [7]: good permeability
SMILES: COc1c(-c2ccc3cc(NS(C)(=O)=O)ccc3c2)cc(-n2ccc(=O)[nH]c2=O)cc1C(C)(C)C [Compound 4, N-(6-(3-tert-butyl-5-(2,4-dioxo-3,4-dihydropyrimidin-1(2H)-yl)-2-methoxyphenyl)naphthalen-2-yl)methanesulfonamide]

— patent US10105365B2, “Solid antiviral dosage forms” (AbbVie Inc., priority 2014, dated 2018)
